Earlier results, collected in patent US20250114351A1, “5-HT2C RECEPTOR MODULATING AGENTS FOR THE TREATMENT OF NEURODEGENERATIVE, MENTAL, COGNITIVE AND AUTOIMMUNE CNS DISORDERS” (priority 2022, published 2025).

How the values were obtained:
5-HT2C = target: T1, 5-HT2C (Homo sapiens, UniProt P28335)
T1 sequence (P28335 33-458): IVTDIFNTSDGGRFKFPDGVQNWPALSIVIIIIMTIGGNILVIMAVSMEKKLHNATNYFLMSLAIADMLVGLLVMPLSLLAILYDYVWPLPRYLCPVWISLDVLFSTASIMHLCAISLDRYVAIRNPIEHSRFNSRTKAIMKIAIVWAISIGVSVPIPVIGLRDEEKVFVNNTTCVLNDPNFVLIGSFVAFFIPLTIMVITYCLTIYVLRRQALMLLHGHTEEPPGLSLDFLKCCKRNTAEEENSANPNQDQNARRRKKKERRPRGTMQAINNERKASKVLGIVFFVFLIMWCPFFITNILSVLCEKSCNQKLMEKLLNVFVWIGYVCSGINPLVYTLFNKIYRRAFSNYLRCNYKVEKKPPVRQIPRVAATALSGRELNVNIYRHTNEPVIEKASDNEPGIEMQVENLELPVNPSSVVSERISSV

5-HT2B = 5-HT2B (Homo sapiens, UniProt P41595)
5-HT2A = 5-HT2A (Homo sapiens, UniProt P28223)
Sequence of 5-HT2A (P28223 whole entry, species assumed): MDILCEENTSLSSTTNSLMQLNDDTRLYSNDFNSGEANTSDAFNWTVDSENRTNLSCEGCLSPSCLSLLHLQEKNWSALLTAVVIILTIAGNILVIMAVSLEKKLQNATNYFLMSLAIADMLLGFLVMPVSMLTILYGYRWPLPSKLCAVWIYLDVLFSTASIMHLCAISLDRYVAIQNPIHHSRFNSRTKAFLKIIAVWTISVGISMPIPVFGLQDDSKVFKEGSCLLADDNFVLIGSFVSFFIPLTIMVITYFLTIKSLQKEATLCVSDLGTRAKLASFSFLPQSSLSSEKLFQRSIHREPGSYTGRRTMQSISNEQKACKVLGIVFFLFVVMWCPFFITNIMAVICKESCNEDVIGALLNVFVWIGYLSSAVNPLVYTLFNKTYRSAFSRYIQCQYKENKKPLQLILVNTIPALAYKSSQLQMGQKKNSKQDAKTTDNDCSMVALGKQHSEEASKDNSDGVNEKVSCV

Sequence of 5-HT2B (P41595 whole entry, species assumed): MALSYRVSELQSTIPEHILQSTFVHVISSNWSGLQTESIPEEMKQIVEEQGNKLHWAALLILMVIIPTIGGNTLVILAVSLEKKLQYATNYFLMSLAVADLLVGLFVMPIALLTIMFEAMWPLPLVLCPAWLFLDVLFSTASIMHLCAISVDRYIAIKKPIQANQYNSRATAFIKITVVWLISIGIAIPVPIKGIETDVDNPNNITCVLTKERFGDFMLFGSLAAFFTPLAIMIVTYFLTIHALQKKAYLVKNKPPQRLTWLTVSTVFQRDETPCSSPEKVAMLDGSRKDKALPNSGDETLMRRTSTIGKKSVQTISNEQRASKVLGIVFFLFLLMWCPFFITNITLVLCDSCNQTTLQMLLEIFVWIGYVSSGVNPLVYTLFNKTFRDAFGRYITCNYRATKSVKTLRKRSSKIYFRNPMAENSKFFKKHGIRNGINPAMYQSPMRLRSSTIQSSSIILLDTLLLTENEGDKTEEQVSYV

| SMILES | 5-HT2C Emax (5-HT2C) [%] | 5-HT2B Emax (5-HT2B) [%] | 5-HT2A Emax (5-HT2A) [%] | EC50 (5-HT2B) [nM] | EC50 (5-HT2A) [nM] |
| --- | --- | --- | --- | --- | --- |
| C[C@H](N)Cn1ccc2cc(F)c(Cl)cc21 [RO 60-01752, (S)-2-(6-chloro-5-fluoroindol-1-yl)-1-methylethylamine] | 88 ± 20 | 130 ± 30 | 91 ± 5 |  |  |
| C[C@H]1CNCCc2ccc(Cl)cc21 [Lorcaserin, (1R)-8-chloro-2,3,4,5-tetrahydro-1-methyl-1H-3-benzazepine] | 100 |  | 75 |  |  |
| c1cc2c3c(c1)[C@H]1CCC[C@H]1N3CCNC2 [WAY-163909, (7bR,10aR)-1,2,3,4,8,9,10,10a-octahydro-7bH-cyclopenta-[b][1,4]diazepino[6,7,1hi]indole] |  |  |  | 185 ± 105 |  |
| c1cc2c3c(c1)[C@H]1CCC[C@H]1CN3CCNC2 [Vabicaserin] |  |  |  |  | 1650 |
| Clc1cccc(COc2cncc(N3CCNCC3)n2)c1 [CP-809101, 2-(3-Chlorobenzyloxy)-6-(piperazin-1-yl)pyrazine] |  |  | 67 |  | 153 |
